The test system of the assay is muscarinic receptors. The assay can be described thus: Muscarinic binding: displacement of [3H]N-methylscopolamine, rat frontal cortical membranes. The conditions noted are these: for Muscarinic % displacement at 10^−6 M: 10^−6 M test compound, single determination, [3H]N-methylscopolamine; for Ki: [3H]N-methylscopolamine 0.15 nM, rat frontal cortical membranes. How it is done: Frontal cortical tissue from the brains of male Charles River rats weighing 150-250 g was homogenised in ice-cold 20 mM HEPES buffer, pH 7.5 (measured at 25° C.) containing 100 mM sodium chloride and 10 mM magnesium chloride (1:10 w/v) using a Polytron PT3100 (speed setting 21,700 rpm, 3×5 seconds) and centrifuged at 49,500 g for 30 minutes at 4° C. The supernatant was discarded and the pellet rehomogenised in 20 mM HEPES buffer, pH 7.5 containing 100 mM sodium chloride and 10 mM magnesium chloride (equivalent to 12.5 mg wet weight of tissue/ml). Membranes were stored at −80° C. until required.
Membranes were thawed, diluted 1:10 in ice-cold 20 mM HEPES buffer, pH 7.5 containing 100 mM sodium chloride and 10 mM magnesium chloride and homogenised using a Polytron PT3100 as above. Diluted membranes (200 μl; equivalent to 0.25 mg wet weight of tissue/tube) were incubated with 200 μl of 20 mM HEPES buffer, pH 7.5 containing 100 mM sodium chloride and 10 mM magnesium chloride and 50 μl [^3H]N-methylscopolamine at a single concentration of 0.15 nM and 50 μl distilled water (total binding) or 50 μl test compound (at a single concentration of 10^−6 M or at 10 concentrations ranging from 10^−11-10^−3 M) or 50 μl atropine sulphate (1 μM; non-specific binding) for 30 min at 30° C. Membrane bound radioactivity was recovered by filtration under vacuum through Skatron 11734 filters using a Skatron cell harvester. Filters were rapidly washed with ice-cold 20 mM HEPES buffer, pH 7.5 (wash 1,2 at setting 5,5). The scored filter paper discs were punched out into vials, scintillation fluid added and radioactivity determined by liquid scintillation counting.
For each of these tests measuring the ability of compounds of Formula I to displace standard ligands from 5-HT1A receptors and 5-hydroxytryptamine (5-HT) and noradrenaline (NA) reuptake sites and muscarinic receptors in vitro, the percentage displacement of specific binding of tritiated ligand by 10^−6 M test compound was calculated in the following way.
Firstly, specific binding of tritiated ligand in the absence (A) and presence (B) of test compound was determined:
In the absence of compound: A(dpm)=Total binding (dpm)−Non-specific binding (dpm) In the presence of compound (10^−6 M): B(dpm)=Binding at 10^−6M (dpm)−Non-specific binding (dpm)
The specific binding of tritiated ligand in the presence (B) of compound was then converted to a percentage of specific binding of tritiated ligand in the absence (A) of compound: % Specific binding at 10^−6 M=B(dpm)/A(dpm)×100
The percentage displacement of specific binding of tritiated ligand by the test compound (10^−6 M) was then obtained by subtraction of the percentage specific binding in the presence of compound from the percentage specific binding in the absence of compound, which is taken as the maximum binding and so equals 100%:
% Displacement at 10^−6 M=100−% Specific binding at 10^−6 M.
In some cases, displacement curves were then produced for compounds which displaced ≧50% of specific binding of the tritiated ligand at 10^−6 M using a range of concentrations of the compound. The Ki was then calculated by simultaneous fitting using equations derived from the Feldman equations by robust non-linear regression to data from three experiments simultaneously (De Lean et al., 1978; Munson and Rodbard, 1980; Feldman, 1992). Munson P J and Rodbard D. Ligand: a versatile computerised approach for characterisation of ligand binding systems. Anal Biochem 1980; 107: 220. Feldman HA. Mathematical theory of complex ligand binding systems at equilibrium: some methods for parameter fitting. Anal Biochem 1992: 48, 317. De Lean A, Munson P J and Rodbard D. Simultaneous analysis of families of sigmoidal curves: application to bioassay, radioligand assay, and physiological dose-response curves. Am J Physiol 1978: 235 (2), E97-E102. […]

Consider `C1=C(c2cccc3sccc23)N2CCN=C2S1.Cl` [Example 2, 3-(benzo[b]thiophen-4-yl)-5,6-dihydroimidazo[2,1-b]thiazole hydrochloride], for which the “Muscarinic % displacement at 10^−6 M” value is recorded as 20%.
Consider `Br.CC1=C(c2cccc3sccc23)N2CCN=C2S1` [Example 8, 3-(benzo[b]thiophen-4-yl)-2-methyl-5,6-dihydroimidazo[2,1-b]thiazole hydrobromide], for which the “Muscarinic % displacement at 10^−6 M” value amounted to 0%.
With `CSC1=C(c2cc3ccccc3s2)N2CCN=C2S1` [Example 19, 3-(benzo[b]thiophen-2-yl)-2-(methylthio)-5,6-dihydroimidazo[2,1-b]thiazole], the “Muscarinic % displacement at 10^−6 M” value worked out at 2%.
`CC(C)C1=C(c2cccc3sccc23)N2CCN=C2S1.O=C(O)/C=C/C(=O)O` [Example 35, 3-(benzo[b]thiophen-4-yl)-2-(1-methylethyl)-5,6-dihydroimidazo[2,1-b]thiazole fumarate] returned a Ki of 492 nM. That is a sub-micromolar value.
For `Br.Oc1cccc2sc(C3=CSC4=NCCN34)cc12` [Example 12, 2-(5,6-dihydroimidazo[2,1-b]thiazol-3-yl)benzo[b]thiophen-4-ol hydrobromide], the “Muscarinic % displacement at 10^−6 M” value is reported as 22%.
In the case of `OCC1=C(c2cccc3sccc23)N2CCN=C2S1` [Example 3, [3-(benzo[b]thiophen-4-yl)-5,6-dihydroimidazo[2,1-b]thiazol-2-yl]methanol], the “Muscarinic % displacement at 10^−6 M” value is listed as −3%.
On to `Br.CC1=C(c2cc3c(F)cccc3s2)N2CCN=C2S1` [Example 7, 3-(4-fluorobenzo[b]thiophen-2-yl)-2-methyl-5,6-dihydroimidazo[2,1-b]thiazole hydrobromide], for which the “Muscarinic % displacement at 10^−6 M” value is listed as 17%.
On the same count and under the same terms, the value for `Br.CC1=C(c2ccc(F)c3sccc23)N2CCN=C2S1` [Example 38, 3-(7-fluorobenzo[b]thiophen-4-yl)-2-methyl-5,6-dihydroimidazo[2,1-b]thiazole hydrobromide] was 12%.
On to `Br.CC1(c2cc3cc(F)ccc3s2)CSC2=NCCN21` (stereo not drawn) [Example 27, 3-(5-fluorobenzo[b]thiophen-2-yl)-3-methyl-5,6-dihydroimidazo[2,1-b]thiazole hydrobromide], for which the “Muscarinic % displacement at 10^−6 M” value was −1%.
On the same count and under the same terms, the value for `Br.CCC1=C(c2cc3c(Cl)cccc3s2)N2CCN=C2S1` [Example 18, 3-(4-chlorobenzo[b]thiophen-2-yl)-2-ethyl-5,6-dihydroimidazo[2,1-b]thiazole hydrobromide] was 12%.
Turning to `Br.CC1=C(c2cc3c(C)cccc3s2)N2CCN=C2S1` [Example 16, 2-methyl-3-(4-methylbenzo[b]thiophen-2-yl)-5,6-dihydroimidazo[2,1-b]thiazole hydrobromide], the “Muscarinic % displacement at 10^−6 M” value came to 0%.
Take `OCC1=C(c2cc3ccccc3s2)N2CCN=C2S1` [Example 15, [3-(benzo[b]thiophen-2-yl)-5,6-dihydroimidazo[2,1-b]thiazol-2-yl]methanol]: the “Muscarinic % displacement at 10^−6 M” value is on record as −15%.
With `CC1=C(c2cccc3ccsc23)N2CCN=C2S1.Cl` [Example 23, 3-(benzo[b]thiophen-7-yl)-2-methyl-5,6-dihydroimidazo[2,1-b]thiazole hydrochloride], the “Muscarinic % displacement at 10^−6 M” value is −5%.
Take `CSC1=C(c2ccc3sccc3c2)N2CCN=C2S1` [Example 30, 3-(benzo[b]thiophen-5-yl)-2-(methylthio)-5,6-dihydroimidazo[2,1-b]thiazole]: the “Muscarinic % displacement at 10^−6 M” value came to 12%.
Same read-out and setting: the value for `CC1=C(c2cccc3sccc23)N2CCN=C2S1.Cl` [Example 9, 3-(benzo[b]thiophen-4-yl)-2-methyl-5,6-dihydroimidazo[2,1-b]thiazole hydrochloride] was 13%.
With `Br.Clc1cccc2sc(C3=CSC4=NCCN34)cc12` [Example 1, 3-(4-chlorobenzo[b]thiophen-2-yl)-5,6-dihydroimidazo[2,1-b]thiazole hydrobromide], the “Muscarinic % displacement at 10^−6 M” value is recorded as 7%.
In the case of `Br.CC1=C(c2cc3c(Cl)cccc3s2)N2CCN=C2S1` [Example 10, 3-(4-chlorobenzo[b]thiophen-2-yl)-2-methyl-5,6-dihydroimidazo[2,1-b]thiazole hydrobromide], the “Muscarinic % displacement at 10^−6 M” value came to 12%.
For `Br.CCC1=C(c2cc3cc(Cl)ccc3s2)N2CCN=C2S1` [Example 11, 3-(5-chlorobenzo[b]thiophen-2-yl)-2-ethyl-5,6-dihydroimidazo[2,1-b]thiazole hydrobromide], the “Muscarinic % displacement at 10^−6 M” value turned out to be 44%.
Turning to `CCC1=C(c2ccc3sccc3c2)N2CCN=C2S1.O=C(O)/C=C/C(=O)O` [Example 31, 3-(benzo[b]thiophen-5-yl)-2-ethyl-5,6-dihydroimidazo[2,1-b]thiazole fumarate], the “Muscarinic % displacement at 10^−6 M” value is reported as 26%.
Turning to `Br.CCC1=C(c2cccc3sccc23)N2CCN=C2S1` [Example 13, 3-(benzo[b]thiophen-4-yl)-2-ethyl-5,6-dihydroimidazo[2,1-b]thiazole hydrobromide], the Ki was 371 nM. That is a sub-micromolar value.
`Br.CC1=C(c2cc3c(Cl)cccc3s2)N2CCCN=C2S1` [Example 17, 3-(4-chlorobenzo[b]thiophen-2-yl)-2-methyl-6,7-dihydro-5H-thiazolo[3,2-a]pyrimidine hydrobromide]: the “Muscarinic % displacement at 10^−6 M” value was 29%.
Consider `Br.c1cc(C2=C(C3CC3)SC3=NCCN32)c2ccsc2c1` [Example 34, 3-(benzo[b]thiophen-4-yl)-2-cyclopropyl-5,6-dihydroimidazo[2,1-b]thiazole hydrobromide], for which the affinity, expressed as Ki, was 76 nM. This counts as double-digit nanomolar.
Turning to `Br.CC1=C(c2ccc3sccc3c2)N2CCN=C2S1` [Example 21, 3-(benzo[b]thiophen-5-yl)-2-methyl-5,6-dihydroimidazo[2,1-b]thiazole hydrobromide], the “Muscarinic % displacement at 10^−6 M” value was determined as 9%.
Where the note is “fumarate”, `CSC1=C(c2cccc3sccc23)N2CCN=C2S1.O=C(O)/C=C/C(=O)O` [Example 32, 3-(benzo[b]thiophen-4-yl)-2-(methylthio)-5,6-dihydroimidazo[2,1-b]thiazole fumarate] registered a Ki of 331 nM.
On to `Br.CC1=C(c2cc3cccc(Cl)c3s2)N2CCN=C2S1` [Example 20, 3-(7-chlorobenzo[b]thiophen-2-yl)-2-methyl-5,6-dihydroimidazo[2,1-b]thiazole hydrobromide], for which the “Muscarinic % displacement at 10^−6 M” value is listed as 16%.
With `Cc1cccc2sc(C3=CSC4=NCCN34)cc12.Cl` [Example 14, 3-(4-methylbenzo[b]thiophen-2-yl)-5,6-dihydroimidazo[2,1-b]thiazole hydrochloride], the “Muscarinic % displacement at 10^−6 M” value is recorded as 9%.
For the molecule `Br.CC1=C(c2ccc3ccsc3c2)N2CCN=C2S1` [Example 37, 3-(benzo[b]thiophen-6-yl)-2-methyl-5,6-dihydroimidazo[2,1-b]thiazole hydrobromide], the “Muscarinic % displacement at 10^−6 M” value is on record as 9%.
For the molecule `CC1=C(c2cccc3sc(C)cc23)N2CCN=C2S1.Cl` [Example 33, 2-methyl-3-(2-methylbenzo[b]thiophen-4-yl)-5,6-dihydroimidazo[2,1-b]thiazole hydrochloride], the “Muscarinic % displacement at 10^−6 M” value was found to be 38%.
With `CC(C)C1=C(c2ccc3sccc3c2)N2CCN=C2S1` [Example 29, 3-(benzo[b]thiophen-5-yl)-2-(1-methylethyl)-5,6-dihydroimidazo[2,1-b]-thiazole], the Ki came out at 798 nM.
In turn, `Br.C=CCC1=C(c2cccc3sccc23)N2CCN=C2S1` [Example 36, 2-allyl-3-(benzo[b]thiophen-4-yl)-5,6-dihydroimidazo[2,1-b]thiazole hydrobromide] registered a Ki of 66 nM.

For the origin of these results see US6900216B2, “Dihydroimidazo[2,1-b]thiazole and dihydro-5h-thiazolo[3,2-A]pyrimidines as antidepressant agents” (Knoll GmbH, priority 2000, dated 2005).
